# pIC50: −log10 of the molar value. Like-named read-outs stand apart in the source and are kept apart here.
# Test system: HIV-1 (NL4-3 strain)
# Assay: Assay for inhibition of HIV replication (MT4-gag-GFP reporter cell line, kinetic assay)
# Type: cell-based
# Details: IP from 4-parameter dose response curve
# Protocol: This assay is useful for assessing the ability of a compound of the present inventiongin to inhibit HIV replication. The assay is a kinetic assay that employs a reporter cell line (MT4-gag-GFP) to quantify the number of new cells infected in each round of replication.
# MT4-GFP cells (250,000 cells/ml) are bulk-infected with HIV-1 (NL4-3 strain) at low multiplicity of infection (MOI) in RPMI+10% FBS for 24 hours. Cells are then washed once in RPMI+10% FBS and resuspended in RPMI+0% or 10% or 100% normal human serum (NHS). Test compounds are serial-diluted in DMSO using an ECHO liquid handler. The infected MT4-GFP cells are added to a 384-well poly-D-lysine coated black plate with clear bottom in which the diluted test compounds are placed. The cells are seeded at 8,000 cells per well and the final DMSO concentration is adjusted to 0.4%. The infected cells (Green GFP cells) are then quantified at both 24 and 48 hours post incubation using Acumen eX3. Viral reproductive ratio (R0) is determined using the number of infected cells at 48 hours divided by the number of infected cells at 24 hours. Percent viral growth inhibition is calculated by [1−(R−Rtripledrug)/(RDMSO−Rtripledrug)]*100. Compound potency IP or IC50 can be determined using a 4-parameter dose response curve analysis.
# [1] = infected MT4-GFP cells in 100% normal human serum, read-out: WILD TYPE CELL ASSAY Viking IP (100% NHS)
# [2] = infected MT4-GFP cells in RPMI + 0% normal human serum, read-out: WILD TYPE CELL ASSAY Viking IP (0% NHS)
# [3] = Human immunodeficiency virus 1, NL43, infected MT4-GFP cells in 100% normal human serum, read-out: WILD TYPE CELL ASSAY Viking IP (100% NHS)
# [4] = Human immunodeficiency virus 1, NL43, infected MT4-GFP cells in RPMI + 0% normal human serum, read-out: WILD TYPE CELL ASSAY Viking IP (0% NHS)
SMILES,pIC50 [1],pIC50 [2],pIC50 [3],pIC50 [4]
CCOP(=O)(CCOCC1(C)C(=O)c2c(O)c(=O)c(C(=O)NCc3ccc(F)cc3F)cn2CC1OC)OCC (centres unmarked) [Compound 32],6.37,8.12,–,–
CCOP(=O)(CCOCC1(C)C(=O)c2c(O)c(=O)c(C(=O)NCc3ccc(F)cc3F)cn2CC1OC)OCC (centres unmarked) [Compound 33],6.73,7.89,–,–
CCOP(=O)(CCOCC1(C)C(=O)c2c(O)c(=O)c(C(=O)NCc3ccc(F)cc3F)cn2CC1OC)OCC (centres unmarked) [Compound 34],6.62,8.09,–,–
CCOP(=O)(CCOCC1(C)C(=O)c2c(O)c(=O)c(C(=O)NCc3ccc(F)cc3F)cn2CC1OC)OCC (centres unmarked) [Compound 35],7.07,8.46,–,–
COC1Cn2cc(C(=O)NCc3ccc(F)cc3F)c(=O)c(O)c2C(=O)C1(C)COCCP(=O)(O)O (centres unmarked) [Compound 36],5.44,6.20,–,–
COC1Cn2cc(C(=O)NCc3ccc(F)cc3F)c(=O)c(O)c2C(=O)C1(C)COCCP(=O)(O)O (centres unmarked) [Compound 37],< 5.10,< 6.00,–,–
COC1Cn2cc(C(=O)NCc3ccc(F)cc3F)c(=O)c(O)c2C(=O)C1(C)COCCP(=O)(O)O (centres unmarked) [Compound 38],5.22,6.13,–,–
COC1Cn2cc(C(=O)NCc3ccc(F)cc3F)c(=O)c(O)c2C(=O)C1(C)COCCP(=O)(O)O (centres unmarked) [Compound 39],5.16,6.47,–,–
COC1Cn2cc(C(=O)NCc3ccc(F)cc3F)c(=O)c(O)c2C(=O)C1(C)COCCP(=O)(OCOC(=O)OC(C)C)OCOC(=O)OC(C)C (centres unmarked) [Compound 40],6.93,9.30,–,–
COC1Cn2cc(C(=O)NCc3ccc(F)cc3F)c(=O)c(O)c2C(=O)C1(C)COCCP(=O)(OCOC(=O)OC(C)C)OCOC(=O)OC(C)C (centres unmarked) [Compound 41],< 5.10,9.01,–,–
COC1Cn2cc(C(=O)NCc3ccc(F)cc3F)c(=O)c(O)c2C(=O)C1(C)COCCP(=O)(OCOC(=O)OC(C)C)OCOC(=O)OC(C)C (centres unmarked) [Compound 42],6.39,8.92,–,–
COC1Cn2cc(C(=O)NCc3ccc(F)cc3F)c(=O)c(O)c2C(=O)C1(C)COCCP(=O)(OCOC(=O)OC(C)C)OCOC(=O)OC(C)C (centres unmarked) [Compound 43],5.83,8.85,–,–
CCOP(=O)(CCCOCCC1(C)C(=O)c2c(O)c(=O)c(C(=O)NCc3ccc(F)cc3F)cn2CC1OC)OCC (centres unmarked) [Compound 44],6.80,8.14,–,–
CCOP(=O)(CCCOCCC1(C)C(=O)c2c(O)c(=O)c(C(=O)NCc3ccc(F)cc3F)cn2CC1OC)OCC (centres unmarked) [Compound 45],6.52,8.09,–,–
CCOP(=O)(CCCOCCC1(C)C(=O)c2c(O)c(=O)c(C(=O)NCc3ccc(F)cc3F)cn2CC1OC)OCC (centres unmarked) [Compound 46],6.99,8.38,–,–
CCOP(=O)(CCCOCCC1(C)C(=O)c2c(O)c(=O)c(C(=O)NCc3ccc(F)cc3F)cn2CC1OC)OCC (centres unmarked) [Compound 47],5.34,6.53,–,–
COC1Cn2cc(C(=O)NCc3ccc(F)cc3F)c(=O)c(O)c2C(=O)C1(C)CCOCCCP(=O)(O)O (centres unmarked) [Compound 48],–,–,5.16,6.20
COC1Cn2cc(C(=O)NCc3ccc(F)cc3F)c(=O)c(O)c2C(=O)C1(C)CCOCCCP(=O)(O)O (centres unmarked) [Compound 49],< 5.08,< 5.98,–,–
COC1Cn2cc(C(=O)NCc3ccc(F)cc3F)c(=O)c(O)c2C(=O)C1(C)CCOCCCP(=O)(O)O (centres unmarked) [Compound 50],< 5.08,< 5.98,–,–
CCOP(=O)(CCOCCC1(C)C(=O)c2c(O)c(=O)c(C(=O)NCc3ccc(F)cc3F)cn2CC1OC)OCC (centres unmarked) [Compound 54],6.65,7.96,–,–
CCOP(=O)(CCOCCC1(C)C(=O)c2c(O)c(=O)c(C(=O)NCc3ccc(F)cc3F)cn2CC1OC)OCC (centres unmarked) [Compound 55],6.89,8.17,–,–
CCOP(=O)(CCOCCC1(C)C(=O)c2c(O)c(=O)c(C(=O)NCc3ccc(F)cc3F)cn2CC1OC)OCC (centres unmarked) [Compound 56],7.07,8.34,–,–
CCOP(=O)(CCOCCC1(C)C(=O)c2c(O)c(=O)c(C(=O)NCc3ccc(F)cc3F)cn2CC1OC)OCC (centres unmarked) [Compound 57],7.08,8.15,–,–
COC1Cn2cc(C(=O)NCc3ccc(F)cc3F)c(=O)c(O)c2C(=O)C1(C)CCOCCP(=O)(O)O (centres unmarked) [Compound 58],< 5.08,–,–,< 5.98
COC1Cn2cc(C(=O)NCc3ccc(F)cc3F)c(=O)c(O)c2C(=O)C1(C)CCOCCP(=O)(O)O (centres unmarked) [Compound 59],5.37,< 5.98,–,–

SMILES,pIC50 [1],pIC50 [2],pIC50 [3],pIC50 [4]
COC1Cn2cc(C(=O)NCc3ccc(F)cc3F)c(=O)c(O)c2C(=O)C1(C)CCOCCP(=O)(O)O (centres unmarked) [Compound 60],5.29,6.12,–,–
COC1Cn2cc(C(=O)NCc3ccc(F)cc3F)c(=O)c(O)c2C(=O)C1(C)CCOCCP(=O)(O)O (centres unmarked) [Compound 61],5.60,6.01,–,–
COC1Cn2cc(C(=O)NCc3ccc(F)cc3F)c(=O)c(O)c2C(=O)C1(C)CCOCCP(=O)(OCOC(=O)OC(C)C)OCOC(=O)OC(C)C (centres unmarked) [Compound 62],5.33,7.85,–,–
COC1Cn2cc(C(=O)NCc3ccc(F)cc3F)c(=O)c(O)c2C(=O)C1(C)CCOCCP(=O)(OCOC(=O)OC(C)C)OCOC(=O)OC(C)C (centres unmarked) [Compound 63],6.25,8.34,–,–
COC1Cn2cc(C(=O)NCc3ccc(F)cc3F)c(=O)c(O)c2C(=O)C1(C)CCOCCP(=O)(OCOC(=O)OC(C)C)OCOC(=O)OC(C)C (centres unmarked) [Compound 64],6.54,8.54,–,–
CCOP(=O)(CCOC1Cn2cc(C(=O)NCc3ccc(F)cc3F)c(=O)c(O)c2C(=O)C1(C)C)OCC (centres unmarked) [Compound 65],6.88,8.27,–,–
CCOP(=O)(CCOC1Cn2cc(C(=O)NCc3ccc(F)cc3F)c(=O)c(O)c2C(=O)C1(C)C)OCC (centres unmarked) [Compound 66],5.89,7.72,–,–
CC1(C)C(=O)c2c(O)c(=O)c(C(=O)NCc3ccc(F)cc3F)cn2CC1OCCP(=O)(O)O (centres unmarked) [Compound 67],–,–,5.37,6.17
CC1(C)C(=O)c2c(O)c(=O)c(C(=O)NCc3ccc(F)cc3F)cn2CC1OCCP(=O)(O)O (centres unmarked) [Compound 68],< 5.10,< 6.00,–,–
CC(C)OC(=O)OCOP(=O)(CCOC1Cn2cc(C(=O)NCc3ccc(F)cc3F)c(=O)c(O)c2C(=O)C1(C)C)OCOC(=O)OC(C)C (centres unmarked) [Compound 69],7.60,8.96,–,–
CC(C)OC(=O)OCOP(=O)(CCOC1Cn2cc(C(=O)NCc3ccc(F)cc3F)c(=O)c(O)c2C(=O)C1(C)C)OCOC(=O)OC(C)C (centres unmarked) [Compound 70],5.70,7.89,–,–
CCOP(=O)(CCCOC1Cn2cc(C(=O)NCc3ccc(F)cc3F)c(=O)c(O)c2C(=O)C1(C)C)OCC (centres unmarked) [Compound 71],6.76,8.02,–,–
CCOP(=O)(CCCOC1Cn2cc(C(=O)NCc3ccc(F)cc3F)c(=O)c(O)c2C(=O)C1(C)C)OCC (centres unmarked) [Compound 72],6.03,7.59,–,–
CC1(C)C(=O)c2c(O)c(=O)c(C(=O)NCc3ccc(F)cc3F)cn2CC1OCCCP(=O)(O)O (centres unmarked) [Compound 73],–,–,< 5.08,6.08
CC1(C)C(=O)c2c(O)c(=O)c(C(=O)NCc3ccc(F)cc3F)cn2CC1OCCCP(=O)(O)O (centres unmarked) [Compound 74],< 5.08,< 5.98,–,–
CC(C)OC(=O)OCOP(=O)(CCCOC1Cn2cc(C(=O)NCc3ccc(F)cc3F)c(=O)c(O)c2C(=O)C1(C)C)OCOC(=O)OC(C)C (centres unmarked) [Compound 75],6.72,8.20,–,–
CC(C)OC(=O)OCOP(=O)(CCCOC1Cn2cc(C(=O)NCc3ccc(F)cc3F)c(=O)c(O)c2C(=O)C1(C)C)OCOC(=O)OC(C)C (centres unmarked) [Compound 76],5.56,7.35,–,–
CCOP(=O)(CCOC1Cn2cc(C(=O)NCc3ccc(F)cc3F)c(=O)c(O)c2C(=O)C1(C)CCOC)OCC (centres unmarked) [Compound 77],6.89,8.26,–,–
CCOP(=O)(CCOC1Cn2cc(C(=O)NCc3ccc(F)cc3F)c(=O)c(O)c2C(=O)C1(C)CCOC)OCC (centres unmarked) [Compound 78],6.24,7.77,–,–
CCOP(=O)(CCOC1Cn2cc(C(=O)NCc3ccc(F)cc3F)c(=O)c(O)c2C(=O)C1(C)CCOC)OCC (centres unmarked) [Compound 79],6.75,7.82,–,–
CCOP(=O)(CCOC1Cn2cc(C(=O)NCc3ccc(F)cc3F)c(=O)c(O)c2C(=O)C1(C)CCOC)OCC (centres unmarked) [Compound 80],5.56,6.42,–,–
COCCC1(C)C(=O)c2c(O)c(=O)c(C(=O)NCc3ccc(F)cc3F)cn2CC1OCCP(=O)(O)O (centres unmarked) [Compound 81],5.67,6.18,–,–
COCCC1(C)C(=O)c2c(O)c(=O)c(C(=O)NCc3ccc(F)cc3F)cn2CC1OCCP(=O)(O)O (centres unmarked) [Compound 82],< 5.10,6.14,–,–
COCCC1(C)C(=O)c2c(O)c(=O)c(C(=O)NCc3ccc(F)cc3F)cn2CC1OCCP(=O)(O)O (centres unmarked) [Compound 83],5.27,< 6.00,–,–

# Source: patent US10081647B2, “Phosphate substituted quinolizine derivatives useful as HIV integrase inhibitors” (Merck Sharp & Dohme Corp., priority 2015, dated 2018)
